From patent publication US20240368163A1, “COMPOUNDS AND METHODS FOR MODULATING SPLICING” (REMIX THERAPEUTICS INC., priority 2021, published 2024)
pIC50: −log10 of the molar value.

Legend:
Format in all cases: cell-based, human
Target C [1] = test: Splicing RT-qPCR panel, Target C canonical junction (CJ) mRNA; settings: Homo sapiens, RT-qPCR panel, canonical junction mRNA; compound concentration having 50% response in CJ decrease; read-out: Target C IC50 (decrease in CJ mRNA levels)
Procedure: (§1) Compounds described herein were used to modulate RNA transcript abundance in cells. The expression of a target mRNA was measured by detecting the formation of an exon-exon junction in the canonical transcript (CJ). A compound mediated exon-inclusion event was detected by observing an increase in formation of a new junction with an alternative exon (AJ). Real-time qPCR assays were used to detect these splicing switches and interrogate the potency of various compounds towards different target genes. A high-throughput real time quantitative PCR (RT-qPCR) assay was developed to measure these two isoforms of the mRNA (CJ and AJ) for exemplary genes, such as HTT, SMN2, and MYB, together with a control housekeeping gene, GAPDH or GUSB or PPIA, used for normalization. Briefly, the A673 or K562 cell line was treated with various compounds described herein (e.g., compounds of Formula (I)). After treatment, the levels of the HTT, MYB, or SMN2 mRNA targets were determined from each sample of cell lysate by cDNA synthesis followed by qPCR.
(§2) The A673 cell line was cultured in DMEM with 10% FBS. Cells were diluted with full growth media and plated in a 96-well plate (15,000 cells in 100 ul media per well). The plate was incubated at 37° C. with 5% CO2 for 24 hours to allow cells to adhere. An 11-point 3-fold serial dilution of the compounds was made in DMSO then diluted in media in an intermediate plate. Compounds were transferred from the intermediate plate to the cell plate with the top dose at a final concentration of 10 uM in the well. Final DMSO concentration was kept at or below 0.25%. The cell plate was returned to the incubator at 37° C. with 5% CO2 for an additional 24 hours.
(§3) The K562 cell line was cultured in IMDM with 10% FBS. For K562, cells were diluted with full growth media and plated in either a 96-well plate (50,000 cells in 50 uL media per well) or a 384-well plate (8,000-40,000 cells in 45 uL media per well). An 11-point 3-fold serial dilution of the compounds were made in DMSO then diluted in media in an intermediate plate. Compound was transferred from the intermediate plate to the cell plate with the top dose at a final concentration of 10 uM in the well. Final DMSO concentration was kept at or below 0.25%. Final volume was 100 uL for 96-well plate and 50 uL for 384-well plate. The cell plate was then placed in an incubator at 37° C. with 5% CO2 for 24 hours.
(§4) The cells were then gently washed with 50 uL-100 uL cold PBS before proceeding to addition of lysis buffer. 30 uL-50 μL of room temperature lysis buffer with DNAse I (and optionally RNAsin) was added to each well. Cells were shaken/mixed thoroughly at room temperature for 5-10 minutes for lysis to take place and then 3 uL-5 μL of room temperature stop solution was added and wells were shaken/mixed again. After 2-5 minutes, the cell lysate plate was transferred to ice for RT-qPCR reaction setup. The lysates could also be frozen at −80° C. for later use.
(§5) In some cases, a direct lysis buffer was used. An appropriate volume of 3× lysis buffer (10 mM Tris, 150 mM NaCl, 1.5%-2.5% Igepal and 0.1-1 U/uL RNAsin, pH 7.4) was directly added to either K562 or A673 cells in media and mixed by pipetting 3 times. The plates were then incubated at room temperature with shaking/rocking for 20-50 minutes to allow for lysis to take place. After this time, the cell lysate plate was transferred to ice to set up for the RT-qPCR reactions. The lysates could also be frozen at −80° C. for later use.
(§6) To set up 10 uL RT-qPCR reactions, cell lysates were transferred to 384-well qPCR plates containing the master mix according to the table below. The plates were sealed, gently vortexed, and spun down before the run. The volumes were adjusted accordingly in some instances where the reaction was carried in 20 μL. The table below summarizes the components of the RT-qPCR reactions:
(§7) The RT-qPCR reaction was performed using a QuantStudio (ThermoFisher) under the following fast cycling conditions. […]

MYB [2] = test: HiBiT protein abundance assay, MYB; settings: Homo sapiens, K562, 24 h, Table 13A, modified K562 cells
Procedure: (§8) Compounds described herein were used to screen for effects on quantitative protein abundance using a HiBit assay system (Promega). Quantitative protein abundance was determined by measuring the protein levels of HiBit-tagged protein targets expressed in cell culture via luminescence using the Nano-Glo HiBiT Lytic Detection System, which uses a split complementation assay format to reconstitute NanoBiT enzyme to generate a luminescent signal. A protein abundance assay was developed such that endogenous protein targets could be modified with the HiBiT peptide tag and their abundance could be assessed after compound treatment. Briefly, K562 cell lines containing a HiBiT-modification were treated with various compounds described herein (e.g., compounds of Formulas (I), (II), or (III)). After treatment for 24 hours, the protein abundance of a specific target was determined by measuring luminescence.
(§9) Cells were maintained in IMIDM with 10% FBS. Before the assay, cells were diluted with […] growth media (IMIDM+[…] media) and were seeded in a 384-well plate at a density of 10000 cells/well (for each cell line listed in Table 12). Each compound was prepared as a 10-point 3-fold serial dilution in DMSO with the top dose at a final concentration of 10 μM in the well. Unmodified K562 cells were added at the previously specified density with DMSO to serve as an assay baseline and positive control (PC) and DMSO only with the respective modified cell lines was added to the negative control (NC) columns. Final DMSO concentration was kept at or below 0.25%. Treated cell plates were placed in an incubator at 37° C. with 5% CO2 for 24 hours. After 24 hours, 25 μL of Complete HiBit Lytic reagent was added to each well at room temperature (e.g. one plate requiring 10 mL Lytic Buffer, 100 μL LgBiT Protein, 200 μL Lytic Substrate), shaken for 5 minutes at 600 RPM, then left to sit for 10 minutes for signal to stabilize before reading on a Spark Cyto plate reader (Tecan) with a 500 ms measurement time.
(§10) To determine compound effects on protein abundance of each target in Table 12, the percent response for each respective cell line was calculated at each compound concentration as follows:
(§11) For the normalized response at each concentration, a four-parameter logistical regression was fit to the data and the response was interpolated at the 50% value to determine a concentration for protein abundance at 50% (IC50) the untreated control.

MYB [3] = test: Splicing RT-qPCR assay, MYB mRNA canonical junction (CJ) and alternative junction (AJ); settings: Homo sapiens; for AC50: increase in AJ mRNA
Procedure: as §1, §2, §3, §4, §5, §6, §7

HTT [4] = test: Splicing RT-qPCR assay, HTT mRNA canonical junction (CJ) and alternative junction (AJ); settings: Homo sapiens; for AC50: increase in AJ mRNA
Procedure: as §1, §2, §3, §4, §5, §6, §7

HTT [5] = test: HiBiT protein abundance assay, HTT; settings: Homo sapiens, K562, 24 h, Table 13A, modified K562 cells
Procedure: as §8, §9, §10, §11

Target C [6] = test: HiBiT protein abundance assay, Target C; settings: Homo sapiens, K562, 24 h, Table 13A, modified K562 cells
Procedure: • Promega Nano-Glo HiBiT Lytic Detection System (cat #N3030) • Coming 384-well TC-treated microplates (cat #3570) • Synthego Engineered Cells Knock-In Clones
as §9, §10, §11

SMN2 = test: Splicing RT-qPCR panel, SMN2 canonical junction (CJ) mRNA; settings: Homo sapiens, RT-qPCR panel, canonical junction mRNA; compound concentration having 50% response in CJ decrease; read-out: SMN2 IC50 (decrease in CJ mRNA levels)
Procedure: as §1, §2, §3, §4, §5, §6, §7

[7] = 24 h, decrease in CJ mRNA, A673 or K562 cells, 24 hours treatment, RT-qPCR, read-out: MYB CJ IC50
[8] = 24 h, A673 or K562 cells, 24 hours treatment, RT-qPCR
[9] = RT-qPCR panel, canonical junction mRNA, compound concentration having 50% response in CJ decrease, read-out: MYB IC50 (decrease in CJ mRNA levels)
[10] = 24 h, decrease in CJ mRNA, A673 or K562 cells, 24 hours treatment, RT-qPCR, read-out: HTT CJ IC50
[11] = RT-qPCR panel, canonical junction mRNA, compound concentration having 50% response in CJ decrease, read-out: HTT IC50 (decrease in CJ mRNA levels)
[12] = A673 or K562 cells, 24 hours treatment, RT-qPCR

| Compound | pIC50 (Target C [1]) | pIC50 (MYB [2]) | pIC50 (MYB [3]; [7]) | AC50 (MYB [3]; [8]) | pIC50 (MYB [3]; [9]) | AC50 (HTT [4]; [8]) | pIC50 (HTT [5]) | pIC50 (Target C [6]) | pIC50 (HTT [4]; [10]) | pIC50 (HTT [4]; [11]) | pIC50 (SMN2) | pIC50 (MYB [3]; decrease in CJ mRNA, A673 or K562 cells, 24 hours treatment, RT-qPCR, read-out: MYB CJ IC50) | AC50 (MYB [3]; [12]) | AC50 (HTT [4]; [12]) |
| --- | --- | --- | --- | --- | --- | --- | --- | --- | --- | --- | --- | --- | --- | --- |
| C[C@H]1C[C@@H](N(C)c2ccc(-c3ccc(-n4cccn4)c4cc[nH]c34)nn2)CCN1 [Compound 111] | < 5.00 | 5.00 to 6.00 | 5.00 to 6.00 | > 10000 nM | 5.00 to 6.00 | > 10000 nM | 5.00 to 6.00 | 5.00 to 6.00 |  |  |  |  |  |  |
| C[C@@H]1C[C@H](N(C)c2ccc(-c3ccc(-n4cccn4)c4nn[nH]c34)nn2)CCN1 [Compound 117] | 5.00 to 6.00 | 5.00 to 6.00 | 5.00 to 6.00 | 1000 to 10000 nM | 5.00 to 6.00 | 1000 to 10000 nM | 5.00 to 6.00 | 5.00 to 6.00 |  |  |  |  |  |  |
| CN(c1ccc(-c2ccc(-c3cn[nH]c3)c3nn[nH]c23)nn1)[C@@H]1C[C@H]2CC[C@@H](C1)N2 [Compound 118] | 5.00 to 6.00 | 5.00 to 6.00 | < 5.00 | 1000 to 10000 nM | < 5.00 | > 10000 nM | 5.00 to 6.00 | 5.00 to 6.00 |  |  |  |  |  |  |
| CN(c1ccc(-c2ccc(-n3cccn3)c3nn[nH]c23)nn1)[C@@H]1C[C@H]2CC[C@@H](C1)N2 [Compound 119] | 6.00 to 7.00 |  | 6.00 to 7.00 | 100 to 1000 nM | 6.00 to 7.00 | 1000 to 10000 nM |  |  | 6.00 to 7.00 | 6.00 to 7.00 | 6.00 to 7.00 |  |  |  |
| CN(c1ccc(-c2ccc(-c3cn[nH]c3)c3ccsc23)nn1)C1CC(C)(C)NC(C)(C)C1 [Compound 131] |  |  | < 5.00 | > 10000 nM | < 5.00 | > 10000 nM |  |  | 5.00 to 6.00 | 5.00 to 6.00 | 6.00 to 7.00 |  |  |  |
| CC1(C)CC(Oc2ccc(-c3ccc(-c4cn[nH]c4)c4cn[nH]c34)nn2)CC(C)(C)N1 [Compound 138] | 6.00 to 7.00 |  | 6.00 to 7.00 | 100 to 1000 nM | 6.00 to 7.00 | 100 to 1000 nM |  |  | 6.00 to 7.00 | 6.00 to 7.00 | 6.00 to 7.00 |  |  |  |
| CN(c1cnc(-c2cc(F)c(-c3cn[nH]c3)c3cn[nH]c23)nn1)[C@@H]1C[C@H]2CC[C@@H](C1)N2 [Compound 149] | 6.00 to 7.00 |  |  |  | 5.00 to 6.00 |  |  |  |  | > 7.00 | 6.00 to 7.00 | 5.00 to 6.00 | 1000 to 10000 nM | < 100 nM |
